The record followed here is US5990146A, “Benzimidazoles for inhibiting protein tyrosine kinase mediated cellular proliferation” (Warner-Lambert Company, priority 1998, dated 1999).

Test [1] deals with PDGF receptor autophosphorylation in rat aorta smooth muscle cells. The test is described as follows: PDGF Receptor Autophosphorylation Assay in rat aorta smooth muscle cells. The following applies: Table 2, PDGF-BB 30 ng/mL, 2 hours pre-incubation, read-out: IC50, inhibition of PDGF-stimulated receptor autophosphorylation. The format is cell-based.
Method: Rat aorta smooth muscle cells (RASMC) are isolated from the thoracic aorta of rats and explanted according to the method of Ross, J. Cell. […] Cells are grown in Dulbecco's modified Eagle's medium (DMEM, Gibco) containing 10% fetal calf serum (FBS, Hyclone, Logan, Utah), 1% glutamine (Gibco) and 1% penicillin/streptomycin (Gibco). Cells are identified as smooth muscle cells by their "hill and valley" growth pattern and by fluorescent staining with a monoclonal antibody specific for SMC μ-actin (Sigma). RASMC are used between passages 5 and 20 for all experiments. Test compounds are prepared in dimethylsulfoxide (DMSO) in order to achieve consistency in the vehicle and to ensure compound solubility. Appropriate DMSO controls are simultaneously evaluated with the test compounds.
Rat aortic smooth muscle cells are grown to confluencey in 100 mm dishes. Growth medium is removed and replaced with serum-free medium and cells are incubated at 37° C. for an additional 24 hours. Test compounds are then added directly to the medium and cells incubated for an additional 2 hours. After 2 hours PDGF-BB is added at a final concentration of 30 ng/mL for 5 minutes at 37° C. to stimulate autophosphorylation of PDGF receptors. Following growth factor treatment, the medium is removed, and cells are washed with cold phosphate-buffered saline and immediately lysed with 1 mL of lysis buffer (50 mM Hepes, pH 7.5, 150 mM NaCl, 10% glycerol, 1% Triton-X 100, 1 mM EDTA, 1 mM EGTA, 50 mM NaF, 1 mM sodium orthovanadate, 30 mM p-nitrophenyl phosphate, 10 mM sodium pyrophosphate, 1 mM phenylmethyl sulfonyl fluoride, 10 μg/mL aprotinin and 10 μg/mL leupeptin). Lysates are centrifuged at 10,000 ×g for 10 minutes. […] Following the incubation, protein-A-sepharose beads are added for 2 hours with continuous mixing, and immune complexes bound to the beads washed 4 times with 1 mL lysis wash buffer. Immune complexes are solubilized in 40 μL of Laemmli sample buffer and electrophoresed in 8-16% SDS polyacrylamide gels. Following electrophoresis, separated proteins are transferred to nitrocellulose and immunoblotted with a 1:1000 dilution of antiphosphotyrosine monoclonal antibody (UBI clone 4G10; #05-321). Following extensive washing with PBS-0.2% tween-20, the blots are incubated with horseradish peroxidase labeled goat antimouse IgG (1:5000; Bio-Rad Inc, Hercules, Calif.) and protein levels are detected by enhanced chemiluminescence (ECL) detection system according to the instructions of the supplier (Amersham Inc, Arlington Heights, Ill.). The density of the protein bands are determined using NIH Image software (v. 1.56) and IC50 values are generated from the densitometric data.
Test [2] concerns the target T1, PDGF receptor tyrosine kinase (mouse PDGF-β) (Mus musculus, UniProt P05622).
T1 construct: PCR primers are designed to amplify a fragment of DNA that codes for the intracellular tyrosine kinase domain; made in house; host or cells: Sf9 insect cells (baculovirus), cell lysate
The test is described as follows: PDGFr tyrosine kinase assay (poly glutamate-tyrosine phosphorylation). Type of test: biochemical. Conditions: Table 1; 10 minutes at 25° C. The procedure: Platelet Derived Growth Factor Receptor (PDGFr) and Fibroblast Growth Factor Receptor (FGFr)
Full length cDNAs for the mouse PDGF-β and human FGF-1 (flg) receptor tyrosine kinases were obtained from J. Escobedo and are prepared as described in J. Biol. Chem., 262: 1482-1487 (1991). PCR primers are designed to amplify a fragment of DNA that codes for the intracellular tyrosine kinase domain. The fragment is melded into a baculovirus vector, cotransfected with AcMNPV DNA, and the recombinant virus isolated. SF9 insect cells are infected with the virus to overexpress the protein, and the cell lysate is used for the assay.
The assay is performed in 96-well plates (100 μL/incubation/well), and conditions are optimized to measure the incorporation of ^32 p from [γ^32 P]-ATP into a glutamate-tyrosine copolymer substrate. Briefly, to each well is added 82.5 μL of incubation buffer containing 25 mM Hepes (pH 7.0), 150 mM NaCl, 0.1% Triton X-100, 0.2 mM PMSF, 0.2 mM sodium vanadate, 10 mM manganese chloride, and 750 μg/mL of poly (4:1) glutamate-tyrosine followed by 2.5 μL of inhibitor and 5 μL of enzyme lysate (7.5 μg/μL FGFR-TK or 6.0 μg/μL PDGFR-TK) to initiate the reaction. Following a 10 minute incubation at 25° C., 10 μL of [γ^32 P]-ATP (0.4 μCi plus 50 μM ATP) is added to each well and samples are incubated for an additional 10 minutes at 25° C. The reaction is terminated by the addition of 100 μL of 30% trichloroacetic acid (TCA) containing 20 mM sodium pyrophosphate and precipitation of material onto glass fiber filter mats (Wallac). Filters are washed 3 times with 15% TCA containing 100 mM sodium pyrophosphate and the radioactivity retained on the filters counted in a Wallac 1250 Betaplate reader. Nonspecific activity is defined as radioactivity retained on the filters following incubation of samples with buffer alone (no enzyme). Specific enzymatic activity is defined as total activity (enzyme plus buffer) minus nonspecific activity.

The next test deals with T2, insulin receptor (INSr) (Homo sapiens, UniProt P06213).
T2 construct: An assay using the intracellular kinase domains of insulin receptor (INSr) is performed
The test is described as follows: Insulin receptor kinase assay. The following applies: Table 1; as for EGF receptor with 10 mM manganese chloride. Type of test: biochemical.

Test [3] has as its target T3, Human EGF receptor tyrosine kinase (Homo sapiens, UniProt P00533).
T3 construct: Human EGF receptor tyrosine kinase is isolated from A431 human epidermoid carcinoma cells; endogenous in cells; host or cells: A431 human epidermoid carcinoma cells (detergent lysate, fast Q sepharose fractions)
The test is described as follows: EGFr tyrosine kinase assay. Type of test: biochemical. The following applies: Table 1; 10 μM ATP, 25° C., 10 minutes.

Test [4] concerns the target T4, FGF receptor tyrosine kinase (human FGF-1 (flg)) (Homo sapiens, UniProt P11362).
T4 construct: PCR primers are designed to amplify a fragment of DNA that codes for the intracellular tyrosine kinase domain; made in house; host or cells: Sf9 insect cells (baculovirus), cell lysate
The test is described as follows: FGFr tyrosine kinase assay (poly glutamate-tyrosine phosphorylation). Type of test: biochemical. Conditions: Table 1; 10 minutes at 25° C. As for the experimental part:
Platelet Derived Growth Factor Receptor (PDGFr) and Fibroblast Growth Factor Receptor (FGFr) Full length cDNAs for the mouse PDGF-β and human FGF-1 (flg) receptor tyrosine kinases were obtained from J. Escobedo and are prepared as described in J. Biol. Chem., 262: 1482-1487 (1991). PCR primers are designed to amplify a fragment of DNA that codes for the intracellular tyrosine kinase domain. The fragment is […] into a baculovirus vector, cotransfected with AcMNPV DNA, and the recombinant virus isolated. SF9 insect cells are infected with the virus to overexpress the protein, and the cell lysate is used for the […] and FGFr The assay is performed in 96-well plates (100 μL/incubation/well), and conditions are optimized to measure the incorporation of ^32 p from [γ^32 P]-ATP into a glutamate-tyrosine copolymer substrate. […] The reaction is terminated by the addition of 100 μL of 30% trichloroacetic acid (TCA) containing 20 mM sodium pyrophosphate and precipitation of material onto glass fiber filter mats (Wallac). Filters are washed 3 times with 15% TCA containing 100 mM sodium pyrophosphate and the radioactivity retained on the filters counted in a Wallac 1250 Betaplate reader. Nonspecific activity is defined as radioactivity retained on the filters following incubation of samples with buffer alone (no enzyme). Specific enzymatic activity is defined as total activity (enzyme plus buffer) minus nonspecific activity.

The next test has as its target T5, c-Src (Homo sapiens, UniProt P12931).
T5 construct: made in house; host or cells: baculovirus infected insect cells
The test can be described thus: c-Src kinase assay. The format is biochemical. Conditions: Table 1; 5 μM ATP, room temperature, 10 minutes. As for the experimental part:
c-Src kinase is purified from baculovirus infected insect cell lysates using an antipeptide monoclonal antibody directed against the N-terminal 2-17 amino acids as described previously by Fry, et al, Anticancer Drug Design. 9: 331-351 (1994). […] At the end of the lysate incubation, the beads are rinsed 3 times in lysis buffer, resuspended in lysis buffer containing 10% glycerol, and frozen. These latex beads are thawed, rinsed 3 times in assay buffer which is comprised of 40 mM tris pH 7.5, 5 mM magnesium chloride, and suspended in the same buffer. […] The reaction is started at room temperature by addition of the ATP and quenched 10 minutes later by the addition of 125 μL of 30% TCA, 0.1 M sodium pyrophosphate for 15 minutes on ice. The plate is then filtered and the wells washed with two 250-μL aliquots of 15% TCA, 0.1 M pyrophosphate. The filters are punched, counted in a liquid scintillation counter, and the data examined for inhibitory activity in comparison to a known inhibitor such as erbstatin. The method is described more fully in J. Med. Chem., 37: 598-609 (1994).

In another test the target is Protein kinase C (PKC). The test is described as follows: PKC assay. Type of test: biochemical. The following applies: Table 1; rat brain preparation.
Test [5] addresses MAP Kinase Pathway (GST-MEK / GST-MAPK). The test can be described thus: Cascade Assay for Inhibitors of the MAP Kinase Pathway (APK Assay). The format is biochemical. The following applies: Table 1; 50 μM ATP, 20 minutes. The procedure:
Cascade Assay for Inhibitors of the MAP Kinase Pathway (APK Assay) Incorporation of ^32 P into myelin basic protein (MBP) is assayed in the presence of a glutathione S-transferase fusion protein containing p44MAP kinase (GST-MAPK) and a glutathione S-transferase fusion protein containing p45MEK (GST-MEK). […] Reactions are stopped after 20 minutes by addition of trichloroacetic acid and filtered through a GF/C filter mat. ^32 P retained on the filter mat is determined using a 1205 betaplate. […] To ascertain whether compounds are inhibiting GST-MEK or GST MAPK, two additional protocols are employed. In the first protocol, compounds are added to tubes containing GST MEK, followed by addition of GST-MAPK, MBP and [γ^32 P]ATP. In the second protocol, compounds are added to tubes containing both GST-MEK and GST-MAPK, followed by MBP and [γ^32 P]ATP. Compounds that show activity in both protocols are scored as […], while compounds showing activity in only the first protocol are scored as MEK inhibitors.

As a reminder, the pIC50 is the IC50 on a negative log10 scale, so that one unit is a factor of ten.

pIC50: −log10 of the molar value. Counter-ions that a name gives are not always drawn. A value given as a limit tells only on which side of the number the result lay.

T5 sequence (P12931 whole entry, species assumed): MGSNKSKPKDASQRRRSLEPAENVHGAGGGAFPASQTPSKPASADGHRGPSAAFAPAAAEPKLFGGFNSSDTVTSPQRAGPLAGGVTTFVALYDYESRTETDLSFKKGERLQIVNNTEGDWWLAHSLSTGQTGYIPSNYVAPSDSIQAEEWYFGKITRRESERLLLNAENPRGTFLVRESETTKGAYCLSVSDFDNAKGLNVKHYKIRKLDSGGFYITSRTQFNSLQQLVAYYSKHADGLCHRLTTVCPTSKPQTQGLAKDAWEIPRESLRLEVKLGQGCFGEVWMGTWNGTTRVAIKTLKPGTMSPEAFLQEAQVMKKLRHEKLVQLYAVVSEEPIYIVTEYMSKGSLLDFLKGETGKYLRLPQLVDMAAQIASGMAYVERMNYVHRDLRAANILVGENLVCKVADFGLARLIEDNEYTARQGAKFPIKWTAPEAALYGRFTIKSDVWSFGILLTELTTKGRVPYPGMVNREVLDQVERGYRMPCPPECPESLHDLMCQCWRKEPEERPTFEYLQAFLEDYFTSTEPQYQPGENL
T4 sequence (P11362 478-767 limits assumed): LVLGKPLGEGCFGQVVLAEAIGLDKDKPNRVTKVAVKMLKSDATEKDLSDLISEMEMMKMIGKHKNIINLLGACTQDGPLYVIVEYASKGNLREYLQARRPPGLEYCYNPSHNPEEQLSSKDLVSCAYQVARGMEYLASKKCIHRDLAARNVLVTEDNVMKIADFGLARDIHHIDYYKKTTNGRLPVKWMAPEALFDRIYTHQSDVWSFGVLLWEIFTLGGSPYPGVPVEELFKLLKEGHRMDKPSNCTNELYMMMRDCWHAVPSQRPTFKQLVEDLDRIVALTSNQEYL
T1 sequence (P05622 599-961 limits assumed): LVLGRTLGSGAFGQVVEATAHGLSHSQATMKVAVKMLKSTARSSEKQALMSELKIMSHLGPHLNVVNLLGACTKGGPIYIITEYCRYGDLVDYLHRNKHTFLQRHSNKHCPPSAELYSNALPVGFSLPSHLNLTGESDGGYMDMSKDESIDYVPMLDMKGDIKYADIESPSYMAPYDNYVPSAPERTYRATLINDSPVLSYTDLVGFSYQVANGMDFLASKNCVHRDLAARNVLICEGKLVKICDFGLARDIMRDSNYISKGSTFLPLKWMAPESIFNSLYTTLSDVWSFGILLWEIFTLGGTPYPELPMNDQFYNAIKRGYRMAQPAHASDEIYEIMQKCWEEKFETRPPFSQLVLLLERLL
T3 sequence (P00533 25-1210): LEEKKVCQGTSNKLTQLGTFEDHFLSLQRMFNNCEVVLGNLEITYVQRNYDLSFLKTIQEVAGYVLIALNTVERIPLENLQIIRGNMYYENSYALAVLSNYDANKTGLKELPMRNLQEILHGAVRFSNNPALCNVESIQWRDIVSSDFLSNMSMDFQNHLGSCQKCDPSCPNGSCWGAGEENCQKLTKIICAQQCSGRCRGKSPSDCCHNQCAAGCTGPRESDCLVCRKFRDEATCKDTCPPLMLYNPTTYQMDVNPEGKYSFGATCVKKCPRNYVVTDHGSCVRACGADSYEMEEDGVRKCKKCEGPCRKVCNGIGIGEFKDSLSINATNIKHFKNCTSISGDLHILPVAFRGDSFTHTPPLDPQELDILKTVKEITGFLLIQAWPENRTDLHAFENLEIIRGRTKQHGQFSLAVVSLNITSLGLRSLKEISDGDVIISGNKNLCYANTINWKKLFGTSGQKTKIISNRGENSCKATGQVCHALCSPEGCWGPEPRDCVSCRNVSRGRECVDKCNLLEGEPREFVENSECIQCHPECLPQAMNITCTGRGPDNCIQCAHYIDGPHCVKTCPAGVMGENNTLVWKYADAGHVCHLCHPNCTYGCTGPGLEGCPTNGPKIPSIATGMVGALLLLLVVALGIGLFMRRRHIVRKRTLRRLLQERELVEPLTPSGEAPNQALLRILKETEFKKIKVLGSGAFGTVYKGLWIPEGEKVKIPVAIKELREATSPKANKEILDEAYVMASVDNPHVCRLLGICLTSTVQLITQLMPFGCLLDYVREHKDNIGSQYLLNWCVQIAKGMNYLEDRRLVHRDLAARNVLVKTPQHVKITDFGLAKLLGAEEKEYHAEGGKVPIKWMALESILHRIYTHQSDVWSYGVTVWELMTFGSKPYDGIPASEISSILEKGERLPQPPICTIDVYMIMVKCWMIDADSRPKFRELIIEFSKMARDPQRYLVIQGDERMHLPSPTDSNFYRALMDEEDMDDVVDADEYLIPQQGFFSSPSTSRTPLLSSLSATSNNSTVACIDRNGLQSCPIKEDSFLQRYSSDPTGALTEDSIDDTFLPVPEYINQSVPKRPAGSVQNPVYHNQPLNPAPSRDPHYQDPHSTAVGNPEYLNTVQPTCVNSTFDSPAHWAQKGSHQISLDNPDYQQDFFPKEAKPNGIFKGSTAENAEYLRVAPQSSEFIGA
T2 sequence (P06213 1023-1298 limits assumed, species assumed): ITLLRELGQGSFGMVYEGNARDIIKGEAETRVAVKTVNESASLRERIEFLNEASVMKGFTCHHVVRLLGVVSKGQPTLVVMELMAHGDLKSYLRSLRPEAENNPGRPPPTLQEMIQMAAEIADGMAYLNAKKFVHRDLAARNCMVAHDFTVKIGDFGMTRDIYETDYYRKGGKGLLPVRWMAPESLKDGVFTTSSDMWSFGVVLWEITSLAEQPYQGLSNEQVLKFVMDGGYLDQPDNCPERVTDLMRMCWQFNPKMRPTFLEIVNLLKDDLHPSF
Method for Protein kinase C (PKC): Protein kinase C (PKC) is obtained as a rat brain preparation from Promega.
The PKC assay is performed as previously described by Martiny-Baron, et al., J. Biol. Chem. 268: 9194-9197 (1993).

Regarding `Nc1ccc(-n2cnc3ccccc32)cc1` [Example 8, 1-(4-Aminophenyl)benzimidazole Dihydrochloride], the pIC50 in test [1] was less than 5.00; in test [2], 5.25.

Turning to `O=Cc1ccc2c(c1)ncn2-c1ccccc1` [Example 21, 1-Phenylbenzimidazole-5-carboxaldehyde], the pIC50 is less than 4.30 against insulin receptor (INSr); greater than 4.30 in test [3]; 5.08 in test [2]; 4.30 in test [4]; 4.30 at c-Src.

Turning to `OCc1ccc2c(c1)ncn2-c1ccccc1` [Example 26, 5-(Hydroxymethyl)-1-phenylbenzimidazole], the pIC50 against insulin receptor (INSr) is less than 4.30; in test [3], greater than 4.30; in test [2] it was 4.93; in test [4] it was less than 4.30; against c-Src, less than 4.30.

Turning to `CC(=O)Oc1ccc2c(c1)ncn2-c1ccccc1` [Example 27, 5-Acetoxy-1-phenylbenzimidazole], the pIC50 at insulin receptor (INSr) was less than 4.30; in test [3], less than 4.30; in test [2], 5.74; in test [4] it was 4.59; against c-Src, less than 4.30.

As to `CN(C)CCCOc1ccc2c(c1)ncn2-c1ccccc1` [Example 37, 5-[3--(N,N-Dimethylamino)propoxyl]-1-phenylbenzimidazole Dihydrochloride], the pIC50 against Protein kinase C (PKC) was less than 4.30; against insulin receptor (INSr), less than 4.30; in test [5] it was 4.57; in test [3], less than 4.40; in test [2] it was 6.70; in test [4] it was 5.39. On c-Src, this compound showed a pIC50 of 4.85.

`c1ccc(-n2cnc3cc(OCCN4CCOCC4)ccc32)cc1` [Example 38, 5-[2-(4-Morpholino)ethoxy]-1-phenylbenzimidazole Dihydrochloride]: the negative-log IC50 (pIC50) was less than 4.30 against Protein kinase C (PKC); less than 4.30 on insulin receptor (INSr); 4.35 in test [5]; 6.15 in test [1]; less than 4.40 in test [3]; 6.15 in test [2]. Also, the pIC50 is 4.55 in test [4] and less than 4.30 against c-Src.

With `c1ccc(-n2cnc3cc(OCCCN4CCOCC4)ccc32)cc1` [Example 39, 5-[3-(4-Morpholino)propoxy]-1-phenylbenzimidazole Dihydrochloride], the pIC50 against Protein kinase C (PKC) was less than 4.30; against insulin receptor (INSr), less than 4.30; in test [5], 4.74; in test [3], less than 4.40; in test [2], 6.70; in test [4], 5.01. On c-Src, the pIC50 was less than 4.30.

`COc1ccc2ncn(-c3ccccc3)c2c1` [Example 40, 6-Methoxy-1-phenylbenzimidazole]: the results for the pIC50 in test [1] and in test [2] were less than 5.00 and 5.19, respectively.

Regarding `COc1ccc2c(c1)ncn2-c1ccc(N)cc1` [Example 45, 1-(4-Aminophenyl)-5-methoxybenzimidazole Dihydrochloride], the pIC50 against Protein kinase C (PKC) is less than 4.30; against insulin receptor (INSr), less than 4.30; in test [5], 4.43; in test [1], 5.46; in test [3] it was greater than 4.40; in test [2], 6.52. Also, the results for the pIC50 (in test [4]; on c-Src) were 4.74 and less than 4.30, respectively.
